According to ChEMBL document CHEMBL1201862, “PubChem BioAssay data set” (2004):
Calls of active or inactive are those of the source.

Experiments:
[1] = HEp-2 cell cytotoxicity, dose response, cytotoxicity control for RSV inhibitor project, HTS (AID 2410); assay type: functional; conditions: human respiratory syncytial virus
[2] = molecular target: T1, Heat shock factor protein 1 (Mus musculus, UniProt P38532); test: inhibition of MG132-induced HSE-luciferase signal, confirmation, cell-based, NIH3T3, luminescence, dose retest (AID 2382); assay type: functional;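 note: NIH3T3 fibroblasts with HSF1-driven luciferase reporter stressed by proteasome inhibitor MG132; luminescence from HSF1-driven luciferase expression after 8 hours of MG132 stress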
T1 sequence (P38532 whole entry): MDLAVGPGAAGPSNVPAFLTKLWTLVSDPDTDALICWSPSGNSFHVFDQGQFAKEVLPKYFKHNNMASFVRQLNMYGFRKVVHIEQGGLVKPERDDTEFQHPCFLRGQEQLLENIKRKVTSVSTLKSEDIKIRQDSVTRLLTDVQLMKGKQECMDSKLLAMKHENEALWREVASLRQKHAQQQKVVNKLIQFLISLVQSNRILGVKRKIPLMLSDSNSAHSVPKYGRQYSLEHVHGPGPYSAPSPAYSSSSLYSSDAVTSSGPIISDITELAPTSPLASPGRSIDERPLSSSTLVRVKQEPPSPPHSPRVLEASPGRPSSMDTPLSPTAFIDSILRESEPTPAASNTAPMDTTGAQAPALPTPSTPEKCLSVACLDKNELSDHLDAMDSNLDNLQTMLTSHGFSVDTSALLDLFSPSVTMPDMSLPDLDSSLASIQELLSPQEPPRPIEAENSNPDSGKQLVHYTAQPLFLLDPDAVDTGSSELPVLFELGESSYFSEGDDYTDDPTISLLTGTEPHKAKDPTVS

Streptokinase A = molecular target: T2, Streptokinase A (Streptococcus pyogenes serotype M1, UniProt P10520); test: S. pyogenes streptokinase expression inhibitors, potency, dose response, plasminogen activation absorbance, OD405 (AID 1914); assay type: functional, Streptococcus pyogenes M1 GAS;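 note: secreted streptokinase activity via plasminogen activation per viability signal from cell pellet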
T2 sequence (P10520 whole entry): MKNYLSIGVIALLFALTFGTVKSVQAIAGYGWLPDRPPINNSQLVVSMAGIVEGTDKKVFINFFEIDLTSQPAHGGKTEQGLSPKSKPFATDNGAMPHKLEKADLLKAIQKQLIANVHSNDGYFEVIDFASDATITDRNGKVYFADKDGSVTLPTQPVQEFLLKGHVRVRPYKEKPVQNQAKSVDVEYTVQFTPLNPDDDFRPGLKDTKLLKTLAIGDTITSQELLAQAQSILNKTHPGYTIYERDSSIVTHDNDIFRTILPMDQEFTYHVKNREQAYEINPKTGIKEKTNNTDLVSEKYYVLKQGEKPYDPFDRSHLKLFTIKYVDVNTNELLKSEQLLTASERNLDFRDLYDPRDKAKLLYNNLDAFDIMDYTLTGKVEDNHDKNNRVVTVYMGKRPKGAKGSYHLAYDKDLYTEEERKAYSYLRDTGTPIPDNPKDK

[3] = tested on: Streptococcus sp. 'group A'; test: growth inhibition of control SK(-) GAS strain, dose response, counter-screen for streptokinase expression inhibitor project, luminescence, kanamycin, BacTiterGlo, confirmation (AID 1900); assay type: functional, organism-based
Streptococcus = test: Group A Streptococcus viability loss, dose response, counter-screen for streptokinase expression inhibitor project, luminescence, BacTiterGlo (AID 1915); assay type: functional, organism-based;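 note: potency for reduction of bacterial viability or growth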
[4] = molecular target: T1, Heat shock factor protein 1; test: HSF1 potentiators in luciferase reporter cells, confirmation, cell-based, NIH3T3, luminescence, dose retest (AID 435004); assay type: functional;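 note: stress induced by proteasome inhibitor MG132 added 30 min after compound; luciferase reporter driven by HSF1 response element in NIH3T3 cells; actives raise luminescence as potentiators of the MG132 stress response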
[5] = C. albicans growth with fluconazole, confirmation, fluorescence, retest (AID 2467); assay type: functional, cell-based
[6] = Luminescence Cell-Based Dose Retest to Confirm Inhibitors of Cancer Stem Cells. [Related pubchem assays (depositor defined):AID2717, AID2721]; assay type: functional; conditions: Homo sapiens
[7] = NIH-3T3 fibroblast cytotoxicity, dose response, cytotoxicity control, cell-based, fluorescence, Alamar Blue, secondary assay (AID 2327); assay type: functional;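 note: NIH-3T3 mouse fibroblasts cultured with fluconazole at 8 µg/mL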
[8] = molecular target: Luciferin 4-monooxygenase (Photinus pyralis, UniProt P08659); test: firefly luciferase enzyme inhibitors, dose response, biochemical, luminescence (AID 1891)
Chain of Luciferin 4-monooxygenase (P08659 whole entry): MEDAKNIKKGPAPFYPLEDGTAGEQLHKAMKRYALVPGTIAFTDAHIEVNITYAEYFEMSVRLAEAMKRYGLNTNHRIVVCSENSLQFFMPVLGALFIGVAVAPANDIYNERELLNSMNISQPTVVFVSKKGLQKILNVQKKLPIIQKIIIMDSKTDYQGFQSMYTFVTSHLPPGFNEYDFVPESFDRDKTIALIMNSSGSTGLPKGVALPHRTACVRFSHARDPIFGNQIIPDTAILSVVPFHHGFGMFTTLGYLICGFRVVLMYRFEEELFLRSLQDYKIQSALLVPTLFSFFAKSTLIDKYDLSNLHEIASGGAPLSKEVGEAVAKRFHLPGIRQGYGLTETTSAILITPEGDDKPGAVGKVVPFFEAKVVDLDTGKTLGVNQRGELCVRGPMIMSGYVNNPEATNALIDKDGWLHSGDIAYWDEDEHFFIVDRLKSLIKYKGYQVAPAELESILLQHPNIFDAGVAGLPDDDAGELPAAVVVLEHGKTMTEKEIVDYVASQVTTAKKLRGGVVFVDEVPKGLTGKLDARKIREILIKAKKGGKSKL

[9] = Luminescence Cell-Based Dose Confirmation HTS to Identify Inhibitors of Platelet Dense Granule Release. [Related pubchem assays: 1663 (Primary HTS), 1678 (Summary of Project)]; assay type: functional
H4 = test: Luminescence Cell-Based Dose Response HTS to Identify Activators of 5'UTR Stem-Loop Driven Prion Protein mRNA Translation in H4 Neuroglioblastoma Cells. [Related pubchem assays: 1829 (Project Summary), 1814 (Primary HTS)]; assay type: functional; conditions: Homo sapiens
[10] = Luminescence Cell-Based Dose Response HTS to Identify Activators of Luciferase Translation or Activity in H4 […] Cells. [Related pubchem assays: 1829 (Project Summary), 1814 (Primary HTS)]; assay type: functional
Cytochrome P450 3A4 = Cytochrome P450 3A4 (Homo sapiens, UniProt P08684);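 note: CYP3A4 tested as one member of a cytochrome P450 panel screen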
Chain of Cytochrome P450 3A4 (P08684 whole entry): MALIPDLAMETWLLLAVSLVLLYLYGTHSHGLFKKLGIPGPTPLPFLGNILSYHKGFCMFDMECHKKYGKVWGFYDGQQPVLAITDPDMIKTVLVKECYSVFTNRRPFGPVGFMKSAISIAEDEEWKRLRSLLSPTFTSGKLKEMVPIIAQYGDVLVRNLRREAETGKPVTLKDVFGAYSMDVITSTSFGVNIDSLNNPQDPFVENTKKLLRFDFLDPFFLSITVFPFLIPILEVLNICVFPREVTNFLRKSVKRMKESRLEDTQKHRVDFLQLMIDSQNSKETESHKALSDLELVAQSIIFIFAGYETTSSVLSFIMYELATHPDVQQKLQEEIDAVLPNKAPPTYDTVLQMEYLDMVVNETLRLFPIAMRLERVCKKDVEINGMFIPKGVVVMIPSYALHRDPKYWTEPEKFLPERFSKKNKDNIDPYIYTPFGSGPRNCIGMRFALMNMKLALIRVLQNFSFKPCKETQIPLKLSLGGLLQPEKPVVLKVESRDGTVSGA

Cytochrome P450 2C19 = Cytochrome P450 2C19 (Homo sapiens, UniProt P33261); test: Cytochrome panel assay with activity outcomes. Panel member name: p450-cyp2c19 Compounds with AC50 equal or less than 10 uM are considered active; assay type: functional; conditions: read-out: AC50
Chain of Cytochrome P450 2C19 (P33261 whole entry): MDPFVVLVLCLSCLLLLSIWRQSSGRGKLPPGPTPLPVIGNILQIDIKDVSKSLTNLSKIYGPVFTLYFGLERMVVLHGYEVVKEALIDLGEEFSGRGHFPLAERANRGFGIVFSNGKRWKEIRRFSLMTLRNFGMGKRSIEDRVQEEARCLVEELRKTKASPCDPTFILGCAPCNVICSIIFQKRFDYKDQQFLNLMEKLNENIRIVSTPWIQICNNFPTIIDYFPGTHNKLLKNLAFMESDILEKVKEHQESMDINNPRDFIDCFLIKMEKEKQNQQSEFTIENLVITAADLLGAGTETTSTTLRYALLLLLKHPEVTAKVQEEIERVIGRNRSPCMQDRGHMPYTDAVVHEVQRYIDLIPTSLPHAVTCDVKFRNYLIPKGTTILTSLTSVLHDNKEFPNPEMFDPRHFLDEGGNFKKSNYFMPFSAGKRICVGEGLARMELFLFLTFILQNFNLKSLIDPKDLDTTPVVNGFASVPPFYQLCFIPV

Cytochrome P450 2C9 = Cytochrome P450 2C9 (Homo sapiens, UniProt P11712)
Chain of Cytochrome P450 2C9 (P11712 whole entry): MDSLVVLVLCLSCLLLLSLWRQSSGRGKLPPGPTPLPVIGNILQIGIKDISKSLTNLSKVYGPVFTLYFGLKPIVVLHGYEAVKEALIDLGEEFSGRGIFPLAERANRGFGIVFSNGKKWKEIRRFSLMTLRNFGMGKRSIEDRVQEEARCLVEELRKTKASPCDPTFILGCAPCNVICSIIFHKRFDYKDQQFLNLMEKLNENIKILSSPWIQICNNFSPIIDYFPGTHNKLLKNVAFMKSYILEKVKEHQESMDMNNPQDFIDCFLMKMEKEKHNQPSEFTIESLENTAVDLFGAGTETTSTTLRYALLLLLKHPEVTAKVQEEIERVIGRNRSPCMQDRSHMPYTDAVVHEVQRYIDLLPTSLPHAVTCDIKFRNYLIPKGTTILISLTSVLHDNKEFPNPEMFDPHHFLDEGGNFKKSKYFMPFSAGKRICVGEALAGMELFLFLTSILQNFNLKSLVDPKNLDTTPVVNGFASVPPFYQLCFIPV

COc1ccccc1-c1cc(C(=O)N2CCN(c3ccccc3)CC2)no1
CC50 [1]: 31.9 µM (active)

Cc1nc(C(=O)NNC(=O)c2cccc(Cl)c2)c(C(F)(F)F)o1
EC50 [2]: > 195 µM (not active)

Cc1ccc(CN2CN(S(=O)(=O)c3cccs3)c3nc4ccccc4nc32)cc1
EC50 (Streptokinase A): > 150 µM (not active) | EC50 [3]: 56 µM (active) | EC50 (Streptococcus): 63.7 µM (active)

NC(=O)CN1CCCC1=O
EC50 [2]: > 195 µM (not active)

Cc1ccc(NNC(=O)c2cccs2)cc1Cl
EC50 [4]: > 260 µM (inactive) | EC50 [5]: 1.62 µM (active) | AC50 [6]: 1.96 µM (active) | EC50 [7]: 29.6 µM (active)

COc1ccc(S(=O)(=O)N2CCOC2CNC(=O)C(=O)NCc2ccccc2Cl)cc1 (stereo not given)
EC50 (Streptokinase A): > 150 µM (not active) | EC50 [3]: > 150 µM (not active) | EC50 (Streptococcus): > 150 µM (not active)

CCc1ccc2oc(-c3cc(N)ccc3Cl)nc2c1
CC50 [1]: 41.3 µM (active)

CC1(C)CC(N/C=C2/C(=O)N(Cc3ccc4c(c3)OCO4)C(=O)c3ccccc32)CC(C)(C)N1
EC50 [5]: 5.68 µM (active) | EC50 [7]: > 160 µM (inactive)

Nc1nc2sc3c(c2cc1C(=O)N1CCOCC1)CCCC3
EC50 [8]: > 112 µM (not active) | EC50 [9]: > 112 µM (not active)

Cc1ccc(N2C(=O)NC(NS(=O)(=O)c3ccccc3)(C(F)(F)F)C2=O)cc1 (stereo not given)
EC50 [2]: > 195 µM (not active)

Cc1ccc(S(=O)(=O)N2CCCC2C(=O)O)cc1 (stereo not given)
EC50 [8]: > 112 µM (not active) | EC50 [9]: > 112 µM (not active)

CCC(C(=O)OCC(=O)Nc1cc(Cl)ccc1Cl)c1ccccc1 (stereo not given)
EC50 [2]: > 195 µM (not active)

Cc1csc(NC(=O)Nc2ccccc2[N+](=O)[O-])n1
EC50 (H4): 94 µM (active) | EC50 [10]: 12.5 µM (active)

Cc1ccsc1C(=O)Nc1nc2ccccc2[nH]1
EC50 [8]: 2.67 µM (active) | EC50 [9]: 4.71 µM (active)

COc1ccc(O)c(CN2CCC(n3nccc3NC(=O)CCOc3ccccc3)CC2)c1
EC50 (Streptokinase A): > 150 µM (not active) | EC50 [3]: > 150 µM (not active) | EC50 (Streptococcus): > 150 µM (not active)

Cc1ccccc1-n1c(C)nc2ccccc21
EC50 [2]: > 195 µM (not active)

Cc1cc(-c2ccc(NC(=O)[C@@H]3CCCC[C@@H]3C(=O)O)c(C)c2)ccc1NC(=O)[C@@H]1CCCC[C@@H]1C(=O)O
CC50 [1]: 17.9 µM (active)

CCCOc1ccc(C(=O)NNC(=S)NC(=O)c2ccccc2[N+](=O)[O-])cc1
EC50 (Streptokinase A): > 150 µM (not active) | EC50 [3]: 2.79 µM (active) | EC50 (Streptococcus): 10.8 µM (active)

Cc1cccc(NC2(C(F)(F)F)N=C(c3ccccc3)NC2=O)n1 (stereo not given)
AC50 (Cytochrome P450 3A4): 15.8 µM (inconclusive) | EC50 [2]: 71.7 µM (active) | AC50 (Cytochrome P450 2C19): 8.91 µM (inconclusive) | AC50 (Cytochrome P450 2C9): 12.6 µM (inconclusive)

N#C/C(=C(/O)c1ccco1)c1nc2ccccc2[nH]1
EC50 [5]: 4.11 µM (active) | EC50 [7]: > 150 µM (inactive)

O=C(CSc1nnc2ccccn12)NNC(=O)c1ccc([N+](=O)[O-])cc1
EC50 [8]: > 112 µM (not active) | EC50 [9]: > 112 µM (not active)

COc1cc(C(=O)OCc2cc(=O)c(O)co2)ccc1OC(F)F
EC50 [5]: > 38 µM (not active) | EC50 [7]: > 160 µM (inactive)

Clc1ccc(-c2cs/c(=N\c3cccnc3)n2CCCn2ccnc2)cc1Cl
CC50 [1]: 15.4 µM (active)
